Patent US20220152165A1, “COMBINATION OF NASAL GENE DELIVERY AND ORAL CINNAMIC ACID, OLEAMIDE OR GEMFIBROZIL FOR LYSOSOMAL STOARGE DISORDERS” (Rush University Medical Center, priority 2019, published 2022)

Tested on: Cln2^(−/−) mice
Assay: Life span of Cln2^(−/−) mice, animal model of late infantile Batten disease (LINCL)
Assay type: in vivo
Conditions: n=6
Method: (§1) For intranasal gene delivery, Cln2^(−/−) mice received 5×10^6 genome copies of Ad-Cln2 in a volume of […] twice a week intranasally (2.5 μl/nostril) starting from two weeks of age for four weeks. For gemfibrozil (gem) treatment, mice received gem (dissolved in 0.1% MeC) orally at a dose of 7.5 mg/kg body weight/day starting from six weeks of age. FIG. 1 describes the percentage of survival is shown by Kaplan-Meier plot.
as §1, with “FIG. 2” for “FIG. 1”, “describes mean” for “describes the percentage of”, “survival days. Six mice (n=6) containing 3 males and 3 females were used in each group. ***p<0.001; NS, not significant.” for “survival is shown by Kaplan-Meier plot.”
Intranasal gene delivery was examined as a valid option for fatal lysosomal storage disorders. A mouse model of Late Infantile Neuronal Ceroid Lipofuscinosis (LINCL) was used, a rare neurodegenerative disease caused by mutations in the Cln2 gene that leads to deficiency or loss of function of the tripeptidyl peptidase 1 (TPP1) enzyme. […]

Cc1ccc(C)c(OCCCC(C)(C)C(=O)O)c1 [gemfibrozil, 5-(2,5-dimethylphenoxy)-2,2-dimethylpentanoic acid]
lifespan of Cln2^−/− mice (gemfibrozil alone, oral 7.5 mg/kg body weight/day starting from six weeks of age, mice not receiving Ad-Cln2): significantly increased the lifespan
lifespan of Cln2^−/− mice that received intranasal Ad-Cln2 (oral gemfibrozil 7.5 mg/kg body weight/day after 4 weeks of intranasal Ad-Cln2, compared with Ad-Cln2 alone): did not further increase the lifespan
